Assay results from US11548903B2, “Bicyclic thiazine and oxazine derivatives as beta-secretase inhibitors and methods of use” (AMGEN INC., priority 2016, dated 2023).
Like-named read-outs stand apart in the source and are kept apart here.

Columns and labels:
[1] = system: β-secretase (Aβ peptide levels); assay: In vivo inhibition of β-secretase (Aβ reduction in rat CSF and brain)
Text: In vivo Inhibition of β-Secretase
Several animal models, including mouse, rat, dog, and monkey, may be used to screen for inhibition of β-secretase activity in vivo following administration of a test compound. […] Animals to be used in this experiment can be wild type, transgenic, or gene knockout animals. For example, the Tg2576 mouse model, prepared and conducted as described in Hsiao et al., Science 274:99-102 (1996), and other non-transgenic or gene knockout animals are useful to analyze in vivo inhibition of Aβ peptide production in the presence of test compounds.
Generally, 2 to 18 month old Tg2576 mice, gene knockout mice or non-transgenic animals are administered test compounds formulated in vehicles, such as cyclodextran, phosphate buffers, hydroxypropyl methylcellulose or other suitable vehicles. One to twenty-four hours following the administration of compound, animals are sacrificed, and brains as well as cerebrospinal fluid (CSF) and plasma are removed for analysis of Aβ levels and test compound concentrations (Dovey et al., J. Neurochem., 76(1):173-181 (2001)) Beginning at time 0, animals are administered by oral gavage, or other means of delivery such as intravenous injection, an inhibitory test compound of up to 100 mg/kg in a standard, conventional formulation, such as 2% hydroxypropyl methylcellulose, 1% Tween80. A separate group of animals receive 2% hydroxypropyl methylcellulose, 1% Tween80 alone, containing no test compound, and serve as a vehicle-control group. At the end of the test period, animals are sacrificed and brain tissues, plasma or cerebrospinal fluid are collected. Brains are either homogenized in 10 volumes (w/v) of 0.2% diethylamine (DEA) in 50 mM NaCl (Best et al., J. Pharmacol. Exp. Ther. 313(2):902-908 (2005)), or in 10 volumes of 0.5% TritonX-100 in Tris-buffered saline (pH at about 7.6). Homogenates are centrifuged at 355,000 g, 4° C. for 30 minutes. CSF or brain supernatants are then analyzed for the presence of Aβ by specific sandwich ELISA assays based on ECL (Electrochemiluminescence) technology. For example, rat Aβ40 is measured using biotinylated-4G8 (Signet) as a capture antibody and Fab40 (an in-house antibody specific to the C-terminal of Aβ40) as a detection antibody. For example, 4 hours after administration of 30 mg/kg oral dose of the test compound in 2% hydroxypropyl methylcellulose, 1% Tween80 (pH2.2) to 200 g male Sprague Dawley rats, Aβ peptide levels are measured for reduction by X % and Y % in cerebrospinal fluid and brain, respectively, when compared to the levels measured in the vehicle-treated or control mice. Alternatively, the antibody sold with the V-PLEX abeta40 Peptide (4G8) Kit, commercially available from Meso Scale Diagnostics (MSD), Rockville, Md. 20850-3173 (Catalog NO. K150SJE-1) may be used in this assay.
The results presented in Table 3 were obtained using certain compounds described herein in the in vivo protocol described above.

human recombinant BACE2 = human recombinant BACE2 (Homo sapiens (Human), UniProt Q9Y5Z0); assay: In vitro enzymatic BACE2 FRET assay; type: biochemical; conditions: read-out: BACE2 Enzyme IC50
Sequence of human recombinant BACE2 (Q9Y5Z0 63-518): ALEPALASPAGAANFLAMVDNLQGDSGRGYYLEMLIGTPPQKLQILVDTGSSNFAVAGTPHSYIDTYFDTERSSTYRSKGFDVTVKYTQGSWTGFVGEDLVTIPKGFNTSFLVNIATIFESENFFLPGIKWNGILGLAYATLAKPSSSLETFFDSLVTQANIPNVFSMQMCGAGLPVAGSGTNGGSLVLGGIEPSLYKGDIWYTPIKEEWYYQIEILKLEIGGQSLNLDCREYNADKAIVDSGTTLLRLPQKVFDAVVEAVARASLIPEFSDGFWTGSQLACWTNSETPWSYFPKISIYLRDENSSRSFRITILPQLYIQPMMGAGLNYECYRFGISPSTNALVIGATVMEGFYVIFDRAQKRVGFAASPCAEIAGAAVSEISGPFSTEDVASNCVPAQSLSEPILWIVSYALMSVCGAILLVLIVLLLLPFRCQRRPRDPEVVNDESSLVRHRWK
Method in brief: (§1)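 Ni-NTA-purified recombinant human BACE1 or BACE2 cleaved a 50 nM internally quenched peptide FRET substrate for one hour. Reactions were stopped with tris buffer raising pH to neutrality. Fluorescence was read at ex 488/em 590 nm.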

human recombinant BACE1 = human recombinant BACE1 (Homo sapiens (Human), UniProt P56817); assay: In vitro enzymatic BACE1 FRET assay; type: biochemical; conditions: read-out: BACE1 Enzyme IC50
Sequence of human recombinant BACE1 (P56817 46-501): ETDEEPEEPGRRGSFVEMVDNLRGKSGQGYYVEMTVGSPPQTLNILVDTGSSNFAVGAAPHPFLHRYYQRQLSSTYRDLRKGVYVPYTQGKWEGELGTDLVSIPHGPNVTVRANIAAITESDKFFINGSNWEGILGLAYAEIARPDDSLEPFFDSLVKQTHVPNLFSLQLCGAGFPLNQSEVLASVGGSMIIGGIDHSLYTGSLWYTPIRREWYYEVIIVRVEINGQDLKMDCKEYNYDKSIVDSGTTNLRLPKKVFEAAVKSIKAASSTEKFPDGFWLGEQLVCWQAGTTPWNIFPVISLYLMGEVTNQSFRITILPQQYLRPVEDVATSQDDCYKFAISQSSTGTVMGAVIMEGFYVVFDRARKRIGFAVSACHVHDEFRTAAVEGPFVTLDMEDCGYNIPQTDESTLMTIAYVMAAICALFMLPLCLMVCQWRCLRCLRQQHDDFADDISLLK
Method in brief: as §1

[2] = system: BACE1 (Aβ40 from cells stably expressing Amyloid Precursor Protein); assay: In vitro BACE1 cell-based assay (Aβ40 in conditioned medium, HTRF)
Method in brief: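 APP-stably expressing cells treated with compounds in 22-point dose response from 62.5 μM top concentration (0.625% final DMSO) for 24 h at 37° C in DMEM/10% FBS. Secreted Aβ40 in conditioned medium quantified by HTRF using ConfAb40 and biotinylated 6E10 with streptavidin-APC, 30-60 min at 23° C.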

Recombinant CatD = Recombinant CatD (Homo sapiens (Human), UniProt P07339); assay: In vitro enzymatic Cathepsin D (CatD) FRET assay; type: biochemical; conditions: read-out: Cat D Enzyme IC50
Sequence of Recombinant CatD (P07339 65-412): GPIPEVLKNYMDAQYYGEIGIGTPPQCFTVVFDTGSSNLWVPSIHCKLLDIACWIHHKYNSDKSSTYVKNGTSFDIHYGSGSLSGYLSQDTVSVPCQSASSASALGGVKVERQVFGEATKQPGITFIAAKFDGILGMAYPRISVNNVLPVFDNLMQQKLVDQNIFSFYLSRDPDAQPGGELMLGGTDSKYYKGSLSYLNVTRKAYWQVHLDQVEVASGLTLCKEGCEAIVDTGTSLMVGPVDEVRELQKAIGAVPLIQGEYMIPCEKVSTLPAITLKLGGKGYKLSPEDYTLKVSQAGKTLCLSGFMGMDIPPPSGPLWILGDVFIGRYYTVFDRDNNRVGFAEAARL
Method in brief: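 Recombinant human CatD, expressed in CHO cells, was run in 0.05 M citrate pH 3.5 with 10% DMSO final and 5 mM CHAPS. Reactions were started with 20 nM quenched FRET peptide and incubated 1 h. Tris buffer was added to neutralize the pH before reading fluorescence at ex 500/em 580 nm.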

[3] = system: Aβ peptide levels in the CSF and plasma; conditions: nonhuman primates; cited from earlier work
[4] = system: CSF Aβ peptide concentrations; conditions: cited from earlier work
Aβ peptide in CSF = conditions: oral dose of 95 mg once daily; cited from earlier work
[5] = system: pigment epithelium of the rat's eye; conditions: higher compound dose given for three months; cited from earlier work
[6] = Aβ40, 24 h incubation, read-out: BACE1 Cell IC50

IC50 (human recombinant BACE2) | IC50 (human recombinant BACE1) | IC50 (Recombinant CatD) | Compound | % Aβ reduction in rat CSF at 10 mpk [1] | % Aβ reduction in rat brain at 10 mpk [1] | other results
394 nM | 7.45 nM | 125000 nM | C#CCOc1cnc(/C(F)=C/c2ccc(F)c([C@]34CN(C(C)=O)C[C@H]3CSC(N)=N4)c2)cn1 [Example 118, 1-((4aR,7aS)-2-amino-7a-(2-fluoro-5-((Z)-2-fluoro-2-(5-(prop-2-yn-1-yloxy)pyrazin-2-yl)vinyl)phenyl)-4a,5,7,7a-tetrahydropyrrolo[3,4-d][1,3]thiazin-6(4H)-yl)ethanone] | 43% | 43% | IC50 [2, 6]: 0.0198 µM
– | – | – | C[C@H]1OC[C@]2(c3cc(NC(=O)c4cnc(C(F)F)cn4)ccc3F)N=C(N)SC[C@H]12 [Example E2609] | – | – | Aβ peptide levels in the CSF and plasma [3]: significant reduction in Aβ peptide levels in the CSF and plasma
334 nM | 20.1 nM | 292000 nM | N#Cc1ccc(/C(F)=C/c2ccc(F)c([C@]34CO[C@H](C(F)(F)F)[C@H]3CSC(N)=N4)c2)nc1 [Example 126, 6-((Z)-2-(3-((4aS,5S,7aS)-2-amino-5-(trifluoromethyl)-4a,5,7,7a-tetrahydro-4H-furo[3,4-d][1,3]thiazin-7a-yl)-4-fluorophenyl)-1-fluorovinyl)nicotinonitrile] | 83% | 80% | IC50 [2, 6]: 0.00574 µM
– | – | – | CN1C(=N)N[C@](C)(c2cc(NC(=O)c3ccc(F)cn3)ccc2F)CS1(=O)=O [MK-8931] | – | – | CSF Aβ peptide concentrations ([4]; human, in vivo): significantly reduced CSF Aβ peptide concentrations in a sustained and dose-dependent manner; safety profile ([4]; phase I clinical trials): excellent safety profile with no immediately noticeable side effects
– | – | – | C[C@@]1(c2cc(NC(=O)c3ccc(C#N)cn3)ccc2F)C=CSC(N)=N1 [JNJ-54861911] | – | – | Aβ peptide reduction in CSF (Aβ peptide in CSF): up to 95%
– | – | – | C[C@@]1(c2cc(-c3cncnc3)c(F)cc2F)CCSC(N)=N1 [LY 2811376] | – | – | eye toxicity finding [5]: damaged the pigment epithelium of the rat's eye

Compound | IC50 (human recombinant BACE2) | IC50 (human recombinant BACE1) | IC50 (Recombinant CatD) | % Aβ reduction in rat CSF at 10 mpk [1] | % Aβ reduction in rat brain at 10 mpk [1] | other results
N#Cc1cnc(/C(F)=C/c2ccc(F)c([C@]34CO[C@H](C(F)(F)F)[C@H]3CSC(N)=N4)c2)cn1 [Example 128, 5-((Z)-2-(3-((4aS,5S,7aS)-2-amino-5-(trifluoromethyl)-4a,5,7,7a-tetrahydro-4H-furo[3,4-d][1,3]thiazin-7a-yl)-4-fluorophenyl)-1-fluorovinyl)pyrazine-2-carbonitrile] | 341 nM | 15.3 nM | 418000 nM | 79% | 77% | IC50 ([2]; 24 h, read-out: BACE1 Cell IC50 (μM)): 0.00364 µM
